Data set [1] in a line: Inhibition of bovine corpus striatum PDE10A using [3H]cAMP or [3H]cGMP as substrate preincubated for 5 mins followed by substrate addition and measured after 30 mins by liquid scintillation counting method. More on the design: species or system Bos taurus.
Data set [2] in a line: Chromatographic hydrophobicity index, log D of the compound at pH 7.4 by reverse-phase HPLC analysis. Particulars: buffer. It counts as physicochemical.
Data set [3] is described as follows: Half life in Wistar rat at 0.3 mg/kg, iv. Particulars: in vivo. It counts as ADME, organism-based.
Data set [4] concerns the target cAMP and cAMP-inhibited cGMP 3',5'-cyclic phosphodiesterase 10A (Homo sapiens, UniProt Q9Y233). The data set is described as follows: Inhibition of human N-terminal FLAG-tagged PDE10A (1 to 90 residues) expressed in using African green monkey COS7 cells using [3H]cAMP or [3H]cGMP as substrate preincubated for 5 mins followed by substrate addition and measured after 30 mins by liquid scintillation counting method.

Data set [5] is described as follows: Clearance in Wistar rat at 0.3 mg/kg, iv. Conditions: in vivo.
The target in data set [6] is Phosphodiesterase 6. Kind of data set: Inhibition of PDE6 (unknown origin). It counts as protein assay, Homo sapiens.
The target of data set [7] is hERG (KCNH2) (Homo sapiens, UniProt Q12809). Kind of data set: Inhibition of human ERG at 1 uM relative to control.
Data set [8] concerns the target cGMP-specific 3',5'-cyclic phosphodiesterase (Homo sapiens, UniProt O76074). The data set is described as follows: Inhibition of PDE5A (unknown origin).
The nature of data set [9]: Unbound brain-to-plasma concentration ratio in Wistar rat at 3 mg/kg, po. It counts as ADME, organism-based.
Data set [10] can be described thus: Oral bioavailability in Wistar rat at 3 mg/kg. It counts as ADME, organism-based. Conditions: in vivo.
A short description of data set [11]: Solubility in artificial interstitial fluid at pH 5 by HPLC analysis. It counts as physicochemical.
For data set [12], the system named is Rattus norvegicus. The data set is described as follows: Antipsychotic activity in po dosed Wistar rat assessed as inhibition of electric stimulation-induced conditioned avoidance responses measured up to 6 days. It counts as functional. Particulars: 144 h, read-out: ID50 (the source's name).
Data set [13] can be described thus: Volume of distribution at steady state in Wistar rat at 0.3 mg/kg, iv. Conditions: in vivo.
The target in data set [14] is Phosphodiesterase 4 (Homo sapiens, UniProt P27815+Q08499+Q07343+Q08493). Kind of data set: Inhibition of PDE4 (unknown origin). It counts as protein assay.
A short description of data set [15]: Ratio of IC50 for PDE9A (unknown origin) to IC50 for bovine corpus striatum PDE10A.
The nature of data set [16]: Intrinsic clearance in human liver microsomes. It counts as ADME, Microsome. Particulars: read-out: CLH. A general note: Liver microsomes are vesicles of endoplasmic reticulum, rich in cytochrome P450 enzymes.
Data set [17] in a line: Ratio of IC50 for PDE5A (unknown origin) to IC50 for bovine corpus striatum PDE10A.
A short description of data set [18]: Ratio of IC50 for PDE2A (unknown origin) to IC50 for bovine corpus striatum PDE10A.
Data set [19] is described as follows: Ratio of IC50 for PDE1 (unknown origin) to IC50 for bovine corpus striatum PDE10A.
Data set [20] can be described thus: Ratio of IC50 for PDE7B (unknown origin) to IC50 for bovine corpus striatum PDE10A.
The nature of data set [21]: Ratio of IC50 for PDE11A (unknown origin) to IC50 for bovine corpus striatum PDE10A.
Data set [22] is described as follows: Ratio of IC50 for PDE8A (unknown origin) to IC50 for bovine corpus striatum PDE10A.
Data set [23] in a line: Ratio of IC50 for PDE4 (unknown origin) to IC50 for bovine corpus striatum PDE10A.
The nature of data set [24]: Ratio of IC50 for PDE3A (unknown origin) to IC50 for bovine corpus striatum PDE10A.
The nature of data set [25]: Ratio of IC50 for PDE6 (unknown origin) to IC50 for bovine corpus striatum PDE10A.

In brackets after ≈: the same amount, converted by molar mass.

For orientation: IC50 means the concentration needed to halve the response being measured. As a reminder, the half-life is how long it takes for the measured level to halve. The inhibition is the share of the control response that was lost under treatment. In general, bioavailability refers to the share of a dose that reaches the circulation, judged against a reference dose that is usually intravenous. What is called solubility is how much of the substance goes into solution per volume. What is called Vdss is a proportionality between amount in the body and measured concentration, not a real space.

hERG (KCNH2), sequence (Q12809 whole entry): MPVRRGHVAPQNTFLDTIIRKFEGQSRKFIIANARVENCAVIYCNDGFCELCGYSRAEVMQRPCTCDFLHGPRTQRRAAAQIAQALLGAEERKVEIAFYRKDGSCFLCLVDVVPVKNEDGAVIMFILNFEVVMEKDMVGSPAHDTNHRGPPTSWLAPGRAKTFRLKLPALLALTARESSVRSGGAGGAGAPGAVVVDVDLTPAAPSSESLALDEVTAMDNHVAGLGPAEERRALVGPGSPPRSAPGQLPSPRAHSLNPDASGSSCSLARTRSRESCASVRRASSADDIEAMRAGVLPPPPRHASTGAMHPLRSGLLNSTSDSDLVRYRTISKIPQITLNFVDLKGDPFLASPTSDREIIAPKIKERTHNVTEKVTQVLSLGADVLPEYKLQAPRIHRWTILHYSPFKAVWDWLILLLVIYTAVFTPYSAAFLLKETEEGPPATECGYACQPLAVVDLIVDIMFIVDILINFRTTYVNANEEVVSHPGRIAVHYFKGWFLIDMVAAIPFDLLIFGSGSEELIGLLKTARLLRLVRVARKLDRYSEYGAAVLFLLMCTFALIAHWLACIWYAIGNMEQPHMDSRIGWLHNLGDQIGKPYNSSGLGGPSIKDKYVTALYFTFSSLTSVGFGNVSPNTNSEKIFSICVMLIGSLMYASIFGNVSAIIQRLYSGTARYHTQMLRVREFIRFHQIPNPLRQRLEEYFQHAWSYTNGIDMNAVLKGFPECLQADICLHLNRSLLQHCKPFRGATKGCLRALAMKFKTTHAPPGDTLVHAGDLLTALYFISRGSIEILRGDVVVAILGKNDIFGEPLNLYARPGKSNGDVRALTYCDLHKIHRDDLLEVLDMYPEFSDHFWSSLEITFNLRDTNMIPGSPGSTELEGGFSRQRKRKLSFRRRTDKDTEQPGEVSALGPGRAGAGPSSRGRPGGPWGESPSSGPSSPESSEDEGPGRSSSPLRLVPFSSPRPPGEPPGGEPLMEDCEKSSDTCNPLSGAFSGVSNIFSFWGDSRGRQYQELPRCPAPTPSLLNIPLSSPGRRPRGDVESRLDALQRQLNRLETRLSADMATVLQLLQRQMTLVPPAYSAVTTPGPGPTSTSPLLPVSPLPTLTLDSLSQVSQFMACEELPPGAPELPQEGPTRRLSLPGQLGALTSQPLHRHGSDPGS
cAMP and cAMP-inhibited cGMP 3',5'-cyclic phosphodiesterase 10A, sequence (Q9Y233 whole entry, the tested form may be a part): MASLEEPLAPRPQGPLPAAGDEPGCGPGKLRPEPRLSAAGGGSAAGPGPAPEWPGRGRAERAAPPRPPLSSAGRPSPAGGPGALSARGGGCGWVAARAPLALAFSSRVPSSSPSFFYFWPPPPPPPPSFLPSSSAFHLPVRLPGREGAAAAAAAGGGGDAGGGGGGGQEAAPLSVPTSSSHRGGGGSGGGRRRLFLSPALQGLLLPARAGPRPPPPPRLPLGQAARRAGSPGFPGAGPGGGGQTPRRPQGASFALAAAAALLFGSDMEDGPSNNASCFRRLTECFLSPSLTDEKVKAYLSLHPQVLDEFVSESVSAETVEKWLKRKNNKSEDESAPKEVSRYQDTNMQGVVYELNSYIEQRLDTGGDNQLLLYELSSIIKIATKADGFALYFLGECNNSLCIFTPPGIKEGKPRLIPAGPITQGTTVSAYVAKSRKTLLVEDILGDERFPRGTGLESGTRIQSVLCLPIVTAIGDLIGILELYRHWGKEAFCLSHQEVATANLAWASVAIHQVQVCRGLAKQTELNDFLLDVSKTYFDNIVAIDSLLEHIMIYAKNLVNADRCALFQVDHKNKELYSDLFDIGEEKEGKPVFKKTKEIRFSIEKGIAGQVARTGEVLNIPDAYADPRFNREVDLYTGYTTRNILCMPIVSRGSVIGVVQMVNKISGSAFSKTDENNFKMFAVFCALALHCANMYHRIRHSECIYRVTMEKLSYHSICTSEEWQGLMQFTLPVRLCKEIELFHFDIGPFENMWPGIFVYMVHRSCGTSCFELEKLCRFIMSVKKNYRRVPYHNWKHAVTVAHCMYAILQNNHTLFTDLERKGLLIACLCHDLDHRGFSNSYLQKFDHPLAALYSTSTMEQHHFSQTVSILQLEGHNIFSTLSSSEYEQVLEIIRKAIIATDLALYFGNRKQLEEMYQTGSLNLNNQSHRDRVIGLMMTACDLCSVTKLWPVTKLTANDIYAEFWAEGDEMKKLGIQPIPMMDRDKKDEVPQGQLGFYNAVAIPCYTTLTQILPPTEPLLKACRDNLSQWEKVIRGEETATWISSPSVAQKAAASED

For the compound `Cc1nc2ccc(F)cc2nc1/C=C/c1nc(NC2CCOCC2)cc(N2CCCC2)n1`, the IC50 in data set [1] amounted to 0.14 nM.

In turn, `Cc1nc2ccc(F)cc2nc1-c1cc2nc(N3CC[C@@H](F)C3)cc(NCC(C)(C)O)n2n1.Cl` came in with a CHI in data set [2] of 2.79. Besides, the half-life in data set [3] was 3.09 h. Also, the IC50 in data set [1] is 0.09 nM; in data set [4], 0.062 nM; in data set [6] it was 561 nM; in data set [8], 437 nM; in data set [14] it was 289 nM. Further, in data set [5], the CL stood at 0.526 L/h/kg. The inhibition at 1 µM in [7] worked out at 23%. Besides, in data set [9] (brain), the “K(p,uu,brain)” value was 0.5. Moreover, the bioavailability in data set [10] amounted to 43.7%. Besides, in data set [11], the concentration in solution (solubility) came to 0.118 mg/mL. Besides, the ED50 in [12] was 0.32 mg/kg. The distribution volume (Vdss) in [13] was 2.307 L/kg.

On to `Cc1nc2ccccc2nc1-c1nc2nc(N3CCCC3)cc(NC3CCOCC3)n2n1`, for which, in data set [1], the IC50 stood at 6 nM.

On to `Cc1ccc2nc(C)c(-c3cc4nc(N5CCCC5)cc(N[C@H]5CC[C@](C)(O)CC5)n4n3)nc2c1.Cl`, for which the CHI in data set [2] is 3.29. The compound further gave an IC50 in [1] of 0.036 nM. Further, in [7], the inhibition at 1 µM was 29%. The same compound had a solubility in [11] of 0.062 mg/mL.

On to `Cc1ccc2nc(C)c(-c3cc4nc(N5CCCC5)cc(NC5CCOCC5)n4n3)nc2c1.Cl`, for which the CHI in data set [2] was determined as 3.4. Further, it took 0.09 nM to reach half-maximal inhibition in data set [1] (IC50). For the same compound, at 1 µM the inhibition in data set [7] was 64%. Moreover, the solubility in [11] was over 1 mg/mL.

Consider `Cc1nc2ccc(F)cc2nc1-c1cc2nc(N3CCCC3)cc(N[C@H]3CC[C@](C)(O)CC3)n2n1.Cl`, for which the CHI in data set [2] worked out at 3.23. In addition, in data set [1], the IC50 was determined as 0.0088 nM. The inhibition at 1 µM in data set [7] is 12%. Further, the concentration in solution in data set [11] (solubility) came to 0.015 mg/mL.

In turn, `Cc1nc2cccc(C)c2nc1-c1cc2nc(N3CCCC3)cc(NC3CCOCC3)n2n1.Cl` showed a half-maximal inhibitory concentration (IC50) in data set [1] of 0.02 nM. The inhibition at 1 µM in data set [7] was determined as 99%. Further, in data set [11], the concentration in solution (solubility) came to 0.121 mg/mL.

Consider `Cc1ccc2nc(-c3cc4nc(N5CCCC5)cc(NC5CCOCC5)n4n3)c(C)nc2c1.Cl`, for which the midpoint of inhibition in [1], the IC50, lay at 0.46 nM. Further, the inhibition at 1 µM in data set [7] turned out to be 80%. The solubility in [11] is 0.017 mg/mL.

Compound `Cc1nc2ccccc2nc1-c1cn2nc(N3CCCC3)cc(NC3CCOCC3)c2n1` registered an IC50 in data set [1] of 0.41 nM.

Compound `Cc1nc2ccccc2nc1-c1cn2c(NC3CCOCC3)cc(N3CCCC3)nc2n1` yielded an IC50 in data set [1] of 71 nM.

In data set [1], `Cc1nc2c(C)cccc2nc1-c1cc2nc(N3CCCC3)cc(NC3CCOCC3)n2n1.Cl` gave a half-inhibitory concentration (IC50) of 0.78 nM. In addition, at 1 µM the inhibition in data set [7] was 94%. In data set [11], this compound displayed a solubility of 0.032 mg/mL.

In data set [2], `Cc1nc2ccc(F)cc2nc1-c1cc2nc(N3CCCC3)cc(NCC(C)(C)O)n2n1.Cl` returned a CHI of 3.07. In data set [1], this compound returned a concentration for half-maximal inhibition (IC50) of 0.0081 nM. In data set [7], the inhibition at 1 µM was 50%. The solubility in data set [11] is 0.0087 mg/mL.

For `Cc1nc2ccccc2nc1-c1cc2nc(N3CCCC3)cc(NC3CCOCC3)n2n1`, the IC50 in [1] came out at 0.15 nM. The inhibition at 1 µM in data set [7] was 63%. In data set [11], this compound showed a solubility of 0.0081 mg/mL (≈ 18.9 µM).

Regarding `CO[C@H]1CC[C@H](Nc2cc(N3CCCC3)nc3cc(-c4nc5cc(C)ccc5nc4C)nn23)CC1.Cl`, the CHI in data set [2] stood at 4.1. In data set [1], this compound had an IC50 of 0.08 nM. Also, in data set [7], testing at 1 µM gave an inhibition of 40%. The concentration in solution in data set [11] (solubility) was 0.0051 mg/mL.

In data set [1], `Cc1ccc2nc(C)c(-c3cc4nc(N5CCCC5)cc(N[C@H]5CC[C@H](O)CC5)n4n3)nc2c1.Cl` returned a half-maximal inhibitory concentration (IC50) of 0.033 nM. Also, the concentration in solution in [11] (solubility) was 0.019 mg/mL.

Consider `Cc1nc2ccccc2nc1-c1cc2nc(N3CC[C@@H](F)C3)cc(N(C)C3CCOCC3)n2n1.Cl`, for which the Ratio IC50 in data set [15], in data set [17], in data set [18], in data set [19], in data set [20] and in data set [21] was over 1000 throughout. Further, the Ratio IC50 in [22], in [23], in data set [24] and in data set [25] was over 1000 in each case. The same compound showed a half-life in data set [3] of 3.2 h. Besides, in data set [16], the microsomal CLint is 127 µL/min/mg. In [4], this compound yielded an IC50 of 0.061 nM. Besides, the Kp uu in data set [9] (Wistar, brain and plasma, read-out: K(p,uu,brain)) is 0.61. For the same compound, the bioavailability in data set [10] was 19.2%. In data set [11], the concentration in solution (solubility) came to 0.0048 mg/mL.

Values taken from ChEMBL document CHEMBL4346730 (Bioorg Med Chem, 2019).
